According to article PMC11949107, “Polyunsaturated fatty acids and their endocannabinoid-related metabolites activity at human TRPV1 and TRPA1 ion channels expressed in HEK-293 cells” (PeerJ, 2025):
Several values for one entry are separate records, joined by “and”; a condition that tells them apart may be missing. Equal entries are not always repeated.

Key:
HEK-293 EV cells = test: Calcium 5 dye [Ca]i assay in HEK-293 empty vector (EV) cells; type: cell-based, human; conditions: 10 µM; HEK-293 EV cells; percentage of predrug baseline
Procedure: (§1) The cells were incubated in a 5% CO2 humidified atmosphere at 37 °C. Upon reaching approximately 90% confluence in 75 cm^2 flasks, they were trypsinized and transferred to poly-D-lysine coated 96-well plates (Corning, Castle Hill, NSW, Australia) in L-15 medium supplemented with 1% FBS, 100 U penicillin and 100 µg streptomycin ml^−1 (1% P/S), and 15 mM glucose (80 µL volume per well). After an overnight incubation (maximum of 16 h) in humidified room air at 37 °C, TRPV1 and TRPA1 receptor expression was induced 4 h before experimentation by adding to each well 10 µL tetracycline solution to a final concentration of 1 µg ml^−1.
Intracellular calcium [Ca]i levels were assessed using the calcium 5 kit from Molecular Devices (# R8186, Sunnyvale, CA, USA) on a FlexStation 3 Microplate Reader (Molecular Devices, Sunnyvale, CA, USA). […] 90 µL of the dye were loaded into each well of the plate and incubated for 1 h before reading in the FlexStation 3 at 37 °C. […] After 1 min of baseline recording, 20 µL of the drug, dissolved in HBSS with 1% dimethyl sulfoxide (DMSO) (cat # D2650; Sigma-Aldrich, Melbourne, Australia) was added (final DMSO concentration was 0.1% in well).
(§2) The response to agonists was expressed as a percentage change from the average baseline measurement taken for 60s before adding drug. Changes in fluorescence resulting from the addition of solvent were subtracted before normalization to baseline. Concentration–response curves (CRC), Emax and EC50 values were determined using a three-parameter logistic equation (GraphPad Prism, San Diego, CA, USA). […] Potencies were expressed as pEC50, which is the negative log of EC50 in moles per litre (Molar). Where appropriate, unpaired Student’s t-test were used to compare the responses of individual compounds in different conditions, while a one-way ANOVA followed by Dunnett’s multiple comparisons test was used to assess potential differences in responses elicited by a range of compounds. P < 0.05 was considered statistically significant.

human TRPA1 = target: T1, human TRPA1 (Homo sapiens, UniProt O75762); test: Calcium 5 dye [Ca]i assay in HEK-293 Flp-In T-REx cells expressing TRPA1 (agonist response); type: cell-based; conditions: for Elevation of [Ca]i in HEK-293 TRPA1 cells compared with HEK-293 EV cells: 10 µM (cinnamaldehyde 300 µM); for Change of Ca5 fluorescence, Mean ± SEM, TRPA1 (10 µM): HEK-293 TRPA1 cells, percentage of predrug baseline; for TRPA1 activation at the highest concentration tested / TRPA1 response compared with the highest concentration of cinnamaldehyde (300 µM) / TRPA1 response, Mean± SEM (N): 30 µM; for TRPA1 response, Mean± SEM (N): one-way ANOVA comparison with cinnamaldehyde 300 µM; for Emax ± SEM % TRPA1 (30 µM): highest tested concentration (30 µM) or derived from concentration-response curves (cinnamaldehyde); for Change in Ca5 fluorescence, individual experiments (CRC raw data): TRPA1 cells
T1 construct: Life Technologies (cells); host or cells: Flp-In T-REx HEK-293
T1 sequence (O75762 whole entry): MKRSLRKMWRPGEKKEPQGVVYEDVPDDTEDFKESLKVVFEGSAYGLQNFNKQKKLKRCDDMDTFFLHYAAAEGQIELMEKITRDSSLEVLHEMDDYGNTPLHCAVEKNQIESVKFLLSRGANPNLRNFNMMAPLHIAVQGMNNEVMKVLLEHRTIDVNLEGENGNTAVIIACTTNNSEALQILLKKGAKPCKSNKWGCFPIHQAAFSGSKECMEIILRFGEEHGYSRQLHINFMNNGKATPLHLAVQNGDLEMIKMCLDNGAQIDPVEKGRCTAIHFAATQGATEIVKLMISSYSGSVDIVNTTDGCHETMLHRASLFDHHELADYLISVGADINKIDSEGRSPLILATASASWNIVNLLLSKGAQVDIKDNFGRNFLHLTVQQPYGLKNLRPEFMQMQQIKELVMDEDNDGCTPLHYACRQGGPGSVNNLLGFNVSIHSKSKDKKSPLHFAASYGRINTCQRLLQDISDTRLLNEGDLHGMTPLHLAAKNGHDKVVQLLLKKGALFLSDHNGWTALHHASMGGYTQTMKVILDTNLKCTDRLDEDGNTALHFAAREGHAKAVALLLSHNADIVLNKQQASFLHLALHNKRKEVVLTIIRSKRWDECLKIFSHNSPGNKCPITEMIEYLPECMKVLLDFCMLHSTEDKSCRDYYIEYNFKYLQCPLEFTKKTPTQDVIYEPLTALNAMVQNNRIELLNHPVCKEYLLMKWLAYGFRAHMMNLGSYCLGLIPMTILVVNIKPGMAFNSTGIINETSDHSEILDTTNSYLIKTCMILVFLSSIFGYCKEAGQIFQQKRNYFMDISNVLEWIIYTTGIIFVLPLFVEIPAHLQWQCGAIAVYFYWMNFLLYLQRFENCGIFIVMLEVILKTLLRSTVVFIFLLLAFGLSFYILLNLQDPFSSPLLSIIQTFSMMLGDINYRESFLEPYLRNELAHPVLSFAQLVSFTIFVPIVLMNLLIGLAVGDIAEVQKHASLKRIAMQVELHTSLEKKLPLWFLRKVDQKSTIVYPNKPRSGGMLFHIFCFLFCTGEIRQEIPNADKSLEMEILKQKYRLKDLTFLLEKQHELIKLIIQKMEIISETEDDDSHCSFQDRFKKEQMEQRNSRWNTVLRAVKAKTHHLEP
Procedure: as §1
(§3) Intracellular calcium [Ca]i levels were assessed using the calcium 5 kit from Molecular Devices (# R8186, Sunnyvale, CA, USA) on a FlexStation 3 Microplate Reader (Molecular Devices, Sunnyvale, CA, USA). […] Probenecid (cat # 50027; Biotium) which helps to prevent expulsion of calcium indicator from the cells was added to a final concentration of 1.25 mM. 90 µL of the dye were loaded into each well of the plate and incubated for 1 h before reading in the FlexStation 3 at 37 °C. Fluorescence was recorded every 2 s (λ excitation = 485 nm, λ emission = 525 nm) for 5 min. After 1 min of baseline recording, 20 µL of the drug, dissolved in HBSS with 1% dimethyl sulfoxide (DMSO) (cat # D2650; Sigma-Aldrich, Melbourne, Australia) was added (final DMSO concentration was 0.1% in well).
as §2

human TRPV1 = target: T2, human TRPV1 (Homo sapiens, UniProt Q8NER1); test: Calcium 5 dye [Ca]i assay in HEK-293 Flp-In T-REx cells expressing TRPV1 (agonist response); type: cell-based; conditions: for Elevation of [Ca]i in HEK-293 TRPV1 cells compared with HEK-293 EV cells / Change of Ca5 fluorescence, Mean ± SEM, TRPV1 (10 µM): 10 µM; for Change of Ca5 fluorescence, Mean ± SEM, TRPV1 (10 µM): percentage of predrug baseline; for Maximal TRPV1 response compared with the highest concentration of capsaicin: 30 µM vs capsaicin 10 µM; for Emax ± SEM % TRPV1 (30 µM): highest tested concentration (30 µM) or derived from concentration-response curves (DHEA, AEA, NADA, capsaicin); for Change in Ca5 fluorescence, individual experiments (CRC raw data): TRPV1 cells; for TRPV1 response, Mean± SEM (N): 30 µM, one-way ANOVA comparison with capsaicin 10 µM
T2 construct: Life Technologies (cells); host or cells: Flp-In T-REx HEK-293
T2 sequence (Q8NER1 whole entry): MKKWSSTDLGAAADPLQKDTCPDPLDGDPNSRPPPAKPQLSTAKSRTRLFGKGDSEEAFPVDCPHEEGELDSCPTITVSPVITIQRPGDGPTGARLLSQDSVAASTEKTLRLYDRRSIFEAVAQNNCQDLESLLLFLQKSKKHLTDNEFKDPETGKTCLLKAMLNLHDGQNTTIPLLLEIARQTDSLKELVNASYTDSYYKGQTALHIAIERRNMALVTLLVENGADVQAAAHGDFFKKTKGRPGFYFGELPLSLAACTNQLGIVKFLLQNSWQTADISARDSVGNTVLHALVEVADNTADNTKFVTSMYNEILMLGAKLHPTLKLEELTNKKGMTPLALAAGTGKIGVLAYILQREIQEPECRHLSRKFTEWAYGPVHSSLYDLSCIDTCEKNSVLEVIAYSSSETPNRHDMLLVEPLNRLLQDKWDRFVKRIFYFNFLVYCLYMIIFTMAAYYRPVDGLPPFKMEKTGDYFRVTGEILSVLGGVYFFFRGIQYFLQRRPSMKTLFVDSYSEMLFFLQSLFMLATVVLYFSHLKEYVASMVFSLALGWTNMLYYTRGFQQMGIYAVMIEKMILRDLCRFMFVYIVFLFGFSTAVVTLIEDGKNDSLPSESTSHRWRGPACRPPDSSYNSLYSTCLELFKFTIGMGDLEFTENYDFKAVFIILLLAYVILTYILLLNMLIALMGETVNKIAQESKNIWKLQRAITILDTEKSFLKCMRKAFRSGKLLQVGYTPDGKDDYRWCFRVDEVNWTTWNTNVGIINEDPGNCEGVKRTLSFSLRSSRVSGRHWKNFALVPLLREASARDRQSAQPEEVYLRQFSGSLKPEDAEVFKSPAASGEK
Procedure: as §1, §3, §2

SMILES	Change of Ca5 fluorescence, Mean ± SEM, EV (10 µM) (HEK-293 EV cells) [%]	Elevation of [Ca]i in HEK-293 TRPA1 cells compared with HEK-293 EV cells (human TRPA1)	Change of Ca5 fluorescence, Mean ± SEM, TRPA1 (10 µM) (human TRPA1) [%]	TRPA1 activation at the highest concentration tested (human TRPA1)	TRPA1 response compared with the highest concentration of cinnamaldehyde (300 µM) (human TRPA1)	TRPA1 response, Mean± SEM (N) (human TRPA1)	Emax ± SEM % TRPA1 (30 µM) (human TRPA1) [%]	Change in Ca5 fluorescence, individual experiments (CRC raw data) (human TRPA1; log concentration -4.52288 (M))	Change in Ca5 fluorescence, individual experiments (CRC raw data) (human TRPA1; log concentration -5 (M))	Change in Ca5 fluorescence, individual experiments (CRC raw data) (human TRPA1; log concentration -5.52288 (M))	Change in Ca5 fluorescence, individual experiments (CRC raw data) (human TRPA1; log concentration -6 (M))	Change in Ca5 fluorescence, individual experiments (CRC raw data) (human TRPA1; log concentration -6.52288 (M))	Change in Ca5 fluorescence, individual experiments (CRC raw data) (human TRPA1; log concentration -7 (M))	Elevation of [Ca]i in HEK-293 TRPV1 cells compared with HEK-293 EV cells (human TRPV1)	Change of Ca5 fluorescence, Mean ± SEM, TRPV1 (10 µM) (human TRPV1; HEK-293 TRPV1 cells) [%]	Emax ± SEM % TRPV1 (30 µM) (human TRPV1) [%]	Change in Ca5 fluorescence, individual experiments (CRC raw data) (human TRPV1; log concentration -4.52288 (M))	Change in Ca5 fluorescence, individual experiments (CRC raw data) (human TRPV1; log concentration -5 (M))	Change in Ca5 fluorescence, individual experiments (CRC raw data) (human TRPV1; log concentration -5.52288 (M))	Change in Ca5 fluorescence, individual experiments (CRC raw data) (human TRPV1; log concentration -6 (M))	also measured
CC/C=C\C/C=C\C/C=C\C/C=C\C/C=C\C/C=C\CCC(=O)NCCO [DHEA, docosahexaenoyl ethanolamide]	10 ± 3	significantly greater	107 ± 50	activated TRPA1	did not differ	335± 60	335 ± 35	349.992 and 313.567 and 315.432 and 199.601 and 366.143 and 464.813	252.775 and 33.0558 and 3.468 and 15.2698 and 63.0111 and 272.344	2.533 and 3.173 and 1.452 and 10.0203 and 10.0547 and 73.8394	2.6845 and 3.9598 and 1.663 and 5.882 and 4.143 and 4.307	2.976 and 11.5941 and 1.922 and 8.318 and 8.221 and 6.083	8.586 and 11.8101 and 8.8764 and 6.208 and 4.123 and 2.766	significantly greater	266 ± 51	439 ± 81	421.157 and 266.746 and 225.074 and 238.504 and 226.816 and 459.662	358.299 and 237.035 and 372.804 and 59.1046 and 202.763 and 364.608	143.051 and 24.824 and 40.8645 and 14.285 and 22.6333 and 69.1812	82.6736 and 2.152 and 3.016 and 2.309 and 4.337 and 4.334	Maximal TRPV1 response compared with the highest concentration of capsaicin (human TRPV1): did not differ; pEC50 ± SEM TRPV1 (human TRPV1; HEK-293 TRPV1 cells, EC50 in molar): 5 ± 0.2; Change in Ca5 fluorescence, individual experiments (CRC raw data) (human TRPV1; log concentration -6.52288 (M)): 7.224 and 2.186 and 3.68 and 2.567 and 2.837 and 6.478; Change in Ca5 fluorescence, individual experiments (CRC raw data) (human TRPV1; log concentration -7 (M)): 5.718 and 2.642 and 2.583 and 2.209 and 5.355 and 1.543
CC/C=C\C/C=C\C/C=C\C/C=C\C/C=C\CCCC(=O)NCCO [EPEA, eicosapentaenoyl ethanolamide]	3 ± 1	did not produce a change	50 ± 40	activated TRPA1	significantly smaller	274± 60	274 ± 27	345.33 and 330.592 and 234.198 and 185.482 and 229.324 and 316.639	250.67 and 8.984 and 4.299 and 4.23 and 22.2267 and 8.362	6.789 and 4.391 and 2.799 and 3.328 and 5.534 and 8.248	2.3186 and 6.477 and 1.9747 and 2.489 and 1.415 and 7.402	2.468 and 7.816 and 1.613 and 1.7019 and 8.366 and 8.252	1.245 and 5.751 and 2.391 and 4.163 and 4.153 and 8.202	did not produce a notable change	15 ± 8	51 ± 22	12.8698 and 124.435 and 117.092 and 13.2242 and 28.647 and 8.814	6.443 and 53.2228 and 9.9712 and 11.9185 and 2.5776 and 3.793	5.664 and 10.8694 and 3.209 and 12.2234 and 1.072 and 3.982	2.913 and 5.488 and 1.312 and 9.151 and 2.704 and 1.489	TRPV1 response, Mean± SEM (N) (human TRPV1): 51± 56; Change in Ca5 fluorescence, individual experiments (CRC raw data) (human TRPV1; log concentration -6.52288 (M)): 3.773 and 2.311 and 2.08 and 9.31 and 0.4729 and 1.052; Change in Ca5 fluorescence, individual experiments (CRC raw data) (human TRPV1; log concentration -7 (M)): 7.0578 and 1.12 and 6.0854 and 9.074 and 2.61 and 2.864
CCCCC/C=C\C/C=C\C/C=C\CCCCC(=O)NCCO [γ-LEA, γ-linolenoyl ethanolamide]	11 ± 2	significantly greater	87 ± 32	activated TRPA1	did not differ	311 ± 60	311 ± 11	346.049 and 274.809 and 332.645 and 317.863 and 295.869 and 300.839	11.624 and 8.016 and 83.7476 and 222.133 and 100.409 and 97.3092	5.237 and 1.372 and 11.2552 and 5.494 and 2.231 and 27.0912	2.963 and 1.112 and 12.1911 and 2.48 and 2.092 and 1.749	0.5786 and 1.167 and 6.112 and 4.171 and 1.807 and 1.825	0.7736 and 1.971 and 6.385 and 5.071 and 2.235 and 0.6536	significantly greater	277 ± 67	354 ± 39	350.183 and 323.986 and 542.155 and 300.489 and 279.486 and 328.331	408.892 and 291.398 and 513.101 and 87.8703 and 117.804 and 243.201	21.7947 and 80.3389 and 37.6766 and 7.854 and 2.348 and 95.5783	179.174 and 9.167 and 5.6781 and 5.979 and 3.41 and 2.934	Maximal TRPV1 response compared with the highest concentration of capsaicin (human TRPV1): did not differ; TRPV1 response, Mean± SEM (N) (human TRPV1): 354± 56; Change in Ca5 fluorescence, individual experiments (CRC raw data) (human TRPV1; log concentration -6.52288 (M)): 5.188 and 2.355 and 8.6025 and 1.698 and 1.3988 and 2.387; Change in Ca5 fluorescence, individual experiments (CRC raw data) (human TRPV1; log concentration -7 (M)): 0.9319 and 4.487 and 3.741 and 0.8649 and 0.1851 and 3.24
